Test results taken from PMC12881681 (Molecular Pharmacology, 2025).
Values joined by “and” are separate entries in the source; they are usually repeats but may differ in a detail not shown here. Identical values can stand only once. Like-named read-outs stand apart in the source and are kept apart here.

How the values were obtained:
[1] = target: T1, human liver cytosolic AOX1 (Homo sapiens, UniProt Q06278); experiment: Effects of a competing AOX1 substrate and a competitive AOX1 inhibitor on AOX1 inactivation; format: biochemical; set-up: Enzymatic reaction was initiated by adding human liver cytosol (100 μg); tissue Corning, Inc. (Gentest brand) 452115; host or cells: human liver cytosol, pool of 150 donors; settings: human liver cytosol; for effect of O^6-benzylguanine on extent of AOX1 inactivation: O^6-benzylguanine 120, 240 (480) μM; for effect of O^6-benzylguanine on extent of AOX1 inactivation / effect of gefitinib on extent of AOX1 inactivation: carbazeran 4-oxidation; for effect of gefitinib on extent of AOX1 inactivation: gefitinib 3, 10, 30 μM
T1 sequence (Q06278 1-1338): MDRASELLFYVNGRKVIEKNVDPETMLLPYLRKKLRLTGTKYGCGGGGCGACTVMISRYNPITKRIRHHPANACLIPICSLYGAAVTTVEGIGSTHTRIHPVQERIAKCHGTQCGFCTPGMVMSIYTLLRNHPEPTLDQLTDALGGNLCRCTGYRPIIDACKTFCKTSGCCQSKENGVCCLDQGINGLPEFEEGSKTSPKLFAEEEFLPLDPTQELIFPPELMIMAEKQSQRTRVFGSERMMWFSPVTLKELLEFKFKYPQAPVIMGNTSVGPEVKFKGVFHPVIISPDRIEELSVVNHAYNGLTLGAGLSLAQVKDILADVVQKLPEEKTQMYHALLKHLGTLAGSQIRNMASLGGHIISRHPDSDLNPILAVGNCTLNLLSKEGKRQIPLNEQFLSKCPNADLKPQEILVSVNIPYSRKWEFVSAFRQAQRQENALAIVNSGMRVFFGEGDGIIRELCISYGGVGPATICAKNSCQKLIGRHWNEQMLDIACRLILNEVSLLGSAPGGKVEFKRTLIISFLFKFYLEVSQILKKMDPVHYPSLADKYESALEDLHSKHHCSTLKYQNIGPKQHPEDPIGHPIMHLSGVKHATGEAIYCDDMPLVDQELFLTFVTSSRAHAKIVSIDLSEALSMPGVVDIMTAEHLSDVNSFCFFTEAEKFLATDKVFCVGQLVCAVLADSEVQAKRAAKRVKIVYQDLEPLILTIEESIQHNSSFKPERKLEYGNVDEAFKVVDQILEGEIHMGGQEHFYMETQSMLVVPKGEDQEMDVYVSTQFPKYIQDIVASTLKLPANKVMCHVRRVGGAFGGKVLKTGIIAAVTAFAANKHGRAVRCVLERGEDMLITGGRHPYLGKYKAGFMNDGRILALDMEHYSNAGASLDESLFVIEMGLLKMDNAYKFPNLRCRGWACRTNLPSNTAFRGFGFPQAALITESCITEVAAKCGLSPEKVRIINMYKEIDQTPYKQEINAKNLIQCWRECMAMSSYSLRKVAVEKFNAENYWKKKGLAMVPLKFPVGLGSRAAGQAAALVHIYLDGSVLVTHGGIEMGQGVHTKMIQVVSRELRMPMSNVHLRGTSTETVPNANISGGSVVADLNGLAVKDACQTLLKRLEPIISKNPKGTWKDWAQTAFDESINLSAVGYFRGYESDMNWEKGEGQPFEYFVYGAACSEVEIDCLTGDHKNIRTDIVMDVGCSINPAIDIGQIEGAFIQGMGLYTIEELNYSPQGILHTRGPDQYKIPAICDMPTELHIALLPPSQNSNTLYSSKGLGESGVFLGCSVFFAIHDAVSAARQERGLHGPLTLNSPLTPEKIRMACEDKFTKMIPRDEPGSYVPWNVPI
Procedure: The molar ratio of O^6-benzylguanine (120, 240, and 480 μM) to 3-vinylerlotinib (10 μM) was 12, 24, and 48, O^6-benzylguanine to 4′-methylerlotinib (3 μM) was 40, 80, and 160, and O^6-benzylguanine to 2-methylerlotinib (1 μM) was 120, 240, and 480, respectively. […] Each standard incubation mixture was subjected to the same procedures as described in Enzyme Inactivation Experiments. The residual AOX1 enzyme activity was determined by the carbazeran 4-oxidation or O^6-benzylguanine 8-oxidation assay.

[2] = cancer patients, cited from earlier work; for Cmax: 150 mg/day erlotinib
[3] = Human plasma concentrations after erlotinib dosing (literature)
[4] = target: T1, human liver cytosolic AOX1; experiment: Dialysis experiment (reversibility of AOX1 inactivation); format: biochemical; set-up: Enzymatic reaction was initiated by adding human liver cytosol (100 μg); tissue Corning, Inc. (Gentest brand) 452115; host or cells: human liver cytosol, pool of 150 donors; settings: 1.5 μM; for recovery of carbazeran 4-oxidation activity after dialysis: 4 and 24 hours of dialysis at 4 °C; for residual AOX1 activity: 6-minute preincubation, % of nondialyzed vehicle control
Procedure: Simultaneously, another aliquot (150 μL) of the primary incubation mixture was transferred to a Slide-A-Lyzer mini dialysis device (0.1 mL) with a molecular weight cutoff of 10,000 (Pierce Chemical Co.) and placed in a beaker filled with 300 mL of ice-cold potassium phosphate buffer (100 mM, pH 7.4). Additionally, potassium phosphate buffer (300 mL) was replaced at 2 and 4 hours after the start of dialysis. Dialysis was performed at 4 °C for 4 and 24 hours with constant gentle stirring. Subsequently, 10 μL of the dialyzed mixture was transferred to the secondary incubation mixture and the residual AOX1 enzyme activity was determined by the carbazeran 4-oxidation assay.

[5] = target: T1, human liver cytosolic AOX1; experiment: AOX1 inactivation, O^6-benzylguanine 8-oxidation by human liver cytosol; format: biochemical; set-up: Enzymatic reaction was initiated by adding human liver cytosol (100 μg); tissue Corning, Inc. (Gentest brand) 452115; host or cells: human liver cytosol, pool of 150 donors; settings: gefitinib 3, 10, 30 μM
[6] = target: T1, human liver cytosolic AOX1; experiment: Effects of nucleophilic trapping agents and scavengers of reactive oxygen species on AOX1 inactivation; format: biochemical; set-up: Enzymatic reaction was initiated by adding human liver cytosol (100 μg); tissue Corning, Inc. (Gentest brand) 452115; host or cells: human liver cytosol, pool of 150 donors; settings: inactivator 1.5 μM; for effect of catalase and superoxide dismutase on AOX1 inactivation: catalase 1000 and 2000 U, superoxide dismutase 500 and 1000 U; for effect of glutathione and N-acetylcysteine on AOX1 inactivation: glutathione or N-acetylcysteine 5 and 10 mM, 6 min
Procedure: The control incubations were described in our previous publication.[28] Each standard incubation mixture was subjected to the same procedures as described in Enzyme Inactivation Experiments. The residual AOX1 enzyme activity was determined by the carbazeran 4-oxidation assay.

SMILES | effect of O^6-benzylguanine on extent of AOX1 inactivation [1] | effect of gefitinib on extent of AOX1 inactivation [1] | Cmax ([2]; day 28) [µM] | Cmax ([2]; erlotinib in plasma, day 24 to day 28) [µM] | Cmax,u ([3]; Cmax,u = plasma fu × Cmax, plasma fu = 0.07) [µM] | recovery of carbazeran 4-oxidation activity after dialysis [4] | residual AOX1 activity ([4]; 24-hour dialysis at 4 °C) [%] | residual AOX1 activity ([4]; without dialysis) [%] | effect of gefitinib on extent of AOX1 inactivation [5] | effect of catalase and superoxide dismutase on AOX1 inactivation [6] | effect of glutathione and N-acetylcysteine on AOX1 inactivation [6] | decrease in carbazeran 4-oxidation in the presence of gefitinib ([1]; inactivator 1.5 μM + 3 μM gefitinib) [%] | decrease in carbazeran 4-oxidation in the presence of gefitinib ([1]; inactivator 1.5 μM + 10 μM gefitinib) [%] | decrease in carbazeran 4-oxidation in the presence of gefitinib ([1]; inactivator 1.5 μM + 30 μM gefitinib) [%] | Cmax,u ([3]; in vivo) [µM] | C24h ([2]; 150 mg/day erlotinib for 1–2 months)
C#Cc1cccc(Nc2nc(C)nc3cc(OCCOC)c(OCCOC)cc23)c1 [2-Methylerlotinib, 2-methylerlotinib] | attenuated | attenuated |  |  |  |  |  |  |  |  |  |  |  |  |  | 
C=Cc1cccc(Nc2ncnc3cc(OCCOC)c(OCCOC)cc23)c1 [3-Vinylerlotinib, 3-vinylerlotinib] | attenuated | attenuated |  |  |  |  |  |  |  |  |  |  |  |  |  | 
C#Cc1cc(Nc2ncnc3cc(OCCOC)c(OCCOC)cc23)ccc1C [4′-Methylerlotinib, 4′-methylerlotinib] | attenuated | attenuated |  |  |  |  |  |  |  |  |  |  |  |  |  | 
C#Cc1cccc(Nc2ncnc3cc(OCCOC)c(OCCOC)cc23)c1 [Erlotinib] | attenuated |  | 5.39 | 4.41 to 5.39 | 0.31 to 0.38 | not recovered | 3.7 | 7.8 | attenuated | did not protect | did not reduce the inactivation | 73 | 55 | 47 |  | 
C#Cc1cccc(Nc2ncnc3cc(OCCOC)c(OCCO)cc23)c1 [O-Desmethylerlotinib, O-desmethylerlotinib] | attenuated | attenuated |  |  |  | not reversed |  |  | attenuated | did not protect | did not reduce the inactivation |  |  |  | 0.0077 to 0.02 | 
C#Cc1cccc(Nc2ncnc3cc(OCCO)c(OCCO)cc23)c1 [O-Didesmethylerlotinib, O-didesmethylerlotinib] | attenuated | attenuated |  |  |  | not reversed |  |  | attenuated | did not protect | did not reduce the inactivation |  |  |  | 0.0001 to 0.0008 | 0.86–4.2 ng/mL and 2.35–11.49 nM
